Measurements as given in patent US20220409617A1, “Drug Formulations and Methods of Treatment for Metabolic Disorders” (The Regents of the University of California, priority 2019, published 2022).

Tests used:
[1] = tested on: mouse embryonic fibroblasts (MEFs); experiment: Ceramide-induced (C16:0 CER, C2-ceramide) mitochondrial fragmentation; assay type: cell-based
Method: (§1) 3T3-L1 cells were maintained in DMEM with 10% FBS and 1% penicillin-streptomycin until induced to differentiate. 3T3-L1 pre-adipocytes were differentiated as described in (M. P. Valley, et al., Anal. Biochem. 505: 43-50, 2016, the disclosure of which is incorporated herein by reference) with slight modifications. Briefly, pre-adipocytes were grown to confluence. After 2 d, cells were induced with maintenance media containing 500 μM IBMX (15879, Sigma-Aldrich, St. Louis, Mo.), 1 μM dexamethasone (D4902, Sigma-Aldrich), 5 μg/mL bovine insulin (10516, Sigma-Aldrich), and 5 μM troglitazone (50-115-0786, ApexBio). Media was changed every 2-3 d for 7 d. On day 7 post-induction, media was changed to maintenance media+5 μg/mL bovine insulin. On day 9 post-induction, media was changed to maintenance media. Mature adipocytes were used 12-14 d post-induction for all experiments. LSL-KrasG12D mouse embryonic fibroblasts (MEFs) with and without Cre-mediated deletion of the STOP cassette were obtained from David Tuveson (Cold Spring Harbor Laboratory, Cold Spring Harbor N.Y., USA) in 2000. p53^flox/flox MEFs were derived in house (2015) from C57BL/6 mice using standard techniques and immortalized by transient expression of Cre recombinase and deletion of p53. MEFs were cultured and maintained in DMEM with 10% FBS and 1% penicillin-streptomycin. A549 cells were cultured in DMEM with 10% FBS, 1% penicillin-streptomycin and 1% sodium pyruvate. Stock solution of palmitic acid (ACROS Organics, cat # AC129702500) was prepared at 100 mM in ethanol. Palmitate (250 μM) was conjugated to 1% (w/v) fatty-acid free bovine serum albumin (Sigma, A8806) in DMEM at 37° C. for 20 min. For all immunofluorescence assays, 8,000 MEFs were seeded into 8-chamber slides (Cellvis, cat # C8-1.5H-N) 12-16 h before treatment. Cells were pre-treated with sphingolipid-like compound 893 (5 μM in water), myriocin (10 μM in methanol), fumonisin-B1 (30 μM in DMSO), or celastrol (500 nM in DMSO) for 3 h followed by a 3 h treatment with BSA-conjugated palmitate mixture or BSA alone. Where cells were treated with C2-ceramide (50 μM in DMSO) or C16:0 ceramide (100 μM in ethanol) for 3 h, cells were pre-treated with sphingolipid-like compound 893 for 1-3 h as indicated, mdivi-1 (50 μM in DMSO) for 1 h or 24 h, M1 (5 μM in DMSO) for 24 h, mdivi-1 and M1 together for 24 h, leflunomide (50 μM in methanol) for 1 h or 24 h, or with P110 (1 μM in water) for 1 h or 12 h. LSL or KRAS^G12D MEFs were treated with sphingolipid-like compound 893 (5 μM) for 6 h prior to fixation.
MEFs were washed twice with PBS and fixed with 4% paraformaldehyde for 10 min at RT. Cells were permeabilized with 0.3% Triton X-100 in blocking buffer containing 10% fetal bovine serum for 20 min at 37° C. followed by overnight incubation with mouse anti-citrate synthase (sc-390693, Santa Cruz Biotechnology; dilution, 1:200) or rabbit-anti-DRP1 at 1:100 (#8570, Cell Signaling Technology) at 4° C. Cells were then washed twice with PBS and incubated with AlexaFluor 488 goat anti-mouse (A28175, Invitrogen) or AlexaFluor 594 donkey anti-rabbit (A32754, Invitrogen) secondary antibodies at RT followed by 5 min incubation with 1 μg/ml DAPI and 2 washes in PBS. For NADH autofluorescence studies, mice were gavaged with vehicle or 120 mg/kg sphingolipid-like compound 893 at ZT8.5 (4-10.5 h before sacrifice between ZT12.5 and ZT18). Post sacrifice, livers were excised, washed 3× with PBS, placed in DMEM supplemented with 10% FBS and 1% penicillin-streptomycin, and immediately imaged. NADH/NADPH autofluorescence was detected with 740 nm excitation and 450±50 nm detectors using a Mai Tai two-photon laser. Fluorescence microscopy was performed on a Zeiss LSM 780 confocal using a 63× oil objective with a […] numerical aperture (NA) or using a Nikon TE2000-S inverted epifluorescence microscope with a 100× oil objective (1.3 NA) and a Photometrics CoolSNAP ES2 monochrome CCD camera. […]

[2] = mouse, in vivo; cited from earlier work
A549 lung cancer cells = experiment: KRAS-mediated mitochondrial fission in A549 cells; assay type: cell-based, human; settings: A549, oncogenic KRAS; 893 5 μM 1 h, leflunomide 50 μM 24 h
Method: as §1, with “Where cells were treated with C2-ceramide (50 μM in DMSO) or C16:0 ceramide (100 μM in ethanol) for 3 h, cells were pre-treated with sphingolipid-like compound 893 for 1-3 h as indicated, mdivi-1 (50 μM in DMSO) for 1 h or 24 h, M1 (5 μM in DMSO) for 24 h, mdivi-1 and M1 together for 24 h, leflunomide (50 μM in methanol) for 1 h or 24 h, or with P110 (1 μM in water) for 1 h or 12 h. LSL or KRAS^G12D MEFs were treated with sphingolipid-like compound 893 (5 μM) for 6 h prior to fixation.” left out
MEFs were washed twice with PBS and fixed with 4% paraformaldehyde for 10 min at RT. […] NADH/NADPH autofluorescence was detected with 740 nm excitation and 450±50 nm detectors using a Mai Tai two-photon laser. Fluorescence microscopy was performed on a Zeiss LSM 780 confocal using a 63× oil objective with a […] numerical aperture (NA) or using a Nikon TE2000-S inverted epifluorescence microscope with a 100× oil objective (1.3 NA) and a Photometrics CoolSNAP ES2 monochrome CCD camera. […]

Structure (SMILES): Cc1oncc1C(=O)Nc1ccc(C(F)(F)F)cc1 [leflunomide]
- Protection from ceramide-induced mitochondrial fragmentation ([1]; MEFs, C16:0 CER 100 μM or C2-ceramide 50 μM 3 h, 893 5 μM, mdivi-1 50 μM, M1 5 μM, leflunomide 50 μM, P110 1 μM): blocked C16:0 ceramide-induced mitochondrial fragmentation after a 24 h, but not a 1 h, pre-incubation
- Potency relative to compound 893 (less potent) ([1]; blocking ceramide-induced mitochondrial fragmentation in vitro): 10 fold
- Food intake and body weight in obese mice [2]: failed to reduce food intake or body weight in obese mice
- Reversal of mitochondrial fragmentation / tubularity in A549 cells (A549 lung cancer cells): did not reverse mitochondrial fragmentation in A549 lung cancer cells
